Experiments:
[1] = system: A2780 ovarian cells; experiment: A2780 Ovarian Cell Proliferation Assay in Lipid Reduced Medium, without Palmitate; type: cell-based; conditions: Homo sapiens, A2780; lipid reduced medium, without palmitate, 96 h, MTT; read-out: Proliferation A2780 w/o Palmitate pIC50 (converted)
Procedure, shortened: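 A2780 cells were seeded in 10% FCS medium and switched next day to 10% lipid-reduced serum without palmitate. Compounds at 0.01–30 μM were added with 0.2% DMSO, 0.2% fatty-acid-free BSA and 0.25% ethanol final. After 96 h, MTT absorbance at 544 nm was normalized to plate controls, and IC50/pIC50 came from a 4-parameter logistic fit.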

[2] = system: A2780 ovarian cells; experiment: A2780 Ovarian Cell Proliferation Assay in Lipid Reduced Medium, with Palmitate (control); type: cell-based; conditions: Homo sapiens, A2780; lipid reduced medium, 25 μM palmitate, 96 h, MTT; read-out: Proliferation A2780 with Palmitate pIC50 (converted)
Procedure, shortened: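 Read-out was MTT absorbance at 544 nm after 96 h at 37 °C. Cells grown overnight in RPMI1640/10% FCS were moved to 10% lipid-reduced serum with compound plus palmitate (final 25 μM, 0.2% fatty-acid-free BSA, 0.2% DMSO). IC50 came from least-squares curve fitting, expressed as −log(IC50).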

[3] = biological target: T1, FASN Keto-reductase Domain (Homo sapiens, UniProt P49327); experiment: Fatty Acid Synthase Keto-Reductase Domain (FASN KR) Inhibition; type: biochemical; conditions: mean where tested more than once; read-out: FASN K-R Domain pIC50 (converted)
T1 construct: 10 μL hFASN enzyme (full length, 300 ng, purified in house) and 360 μM NADPH; made in house
Procedure, shortened: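 Keto-reductase activity followed as NADPH consumption (A340 drop between 0 and 20 min, room temperature) using in-house full-length hFASN, 360 μM NADPH and ethyl acetoacetate substrate (180 mM stock), pH 7.5 phosphate buffer.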

[4] = biological target: T2, hFASN enzyme (full length) (Homo sapiens, UniProt P49327); experiment: Fatty Acid Synthase (FASN) Inhibition Scintillation Proximity Assay; type: biochemical; conditions: for IC50: mean where tested more than once, ~ = standard error of pIC50 larger than 0.5; for inhibition at 10 µM: read-out: FASN % Effect @1E−05M
T2 construct: 10 μL hFASN enzyme (full length, 300 ng, purified in house); made in house
Procedure, shortened: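 Eight compound concentrations (0.01–30 μM) tested in pH 7.5 phosphate buffer with DTT; human full-length enzyme converted [3H]-acetyl-CoA plus malonyl-CoA, with NADPH, over 60 min at room temperature. Hydrophobic [3H]-palmitate detected by bead proximity scintillation imaging; control-normalised data fitted for IC50/pIC50.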

T2 sequence (P49327 whole entry): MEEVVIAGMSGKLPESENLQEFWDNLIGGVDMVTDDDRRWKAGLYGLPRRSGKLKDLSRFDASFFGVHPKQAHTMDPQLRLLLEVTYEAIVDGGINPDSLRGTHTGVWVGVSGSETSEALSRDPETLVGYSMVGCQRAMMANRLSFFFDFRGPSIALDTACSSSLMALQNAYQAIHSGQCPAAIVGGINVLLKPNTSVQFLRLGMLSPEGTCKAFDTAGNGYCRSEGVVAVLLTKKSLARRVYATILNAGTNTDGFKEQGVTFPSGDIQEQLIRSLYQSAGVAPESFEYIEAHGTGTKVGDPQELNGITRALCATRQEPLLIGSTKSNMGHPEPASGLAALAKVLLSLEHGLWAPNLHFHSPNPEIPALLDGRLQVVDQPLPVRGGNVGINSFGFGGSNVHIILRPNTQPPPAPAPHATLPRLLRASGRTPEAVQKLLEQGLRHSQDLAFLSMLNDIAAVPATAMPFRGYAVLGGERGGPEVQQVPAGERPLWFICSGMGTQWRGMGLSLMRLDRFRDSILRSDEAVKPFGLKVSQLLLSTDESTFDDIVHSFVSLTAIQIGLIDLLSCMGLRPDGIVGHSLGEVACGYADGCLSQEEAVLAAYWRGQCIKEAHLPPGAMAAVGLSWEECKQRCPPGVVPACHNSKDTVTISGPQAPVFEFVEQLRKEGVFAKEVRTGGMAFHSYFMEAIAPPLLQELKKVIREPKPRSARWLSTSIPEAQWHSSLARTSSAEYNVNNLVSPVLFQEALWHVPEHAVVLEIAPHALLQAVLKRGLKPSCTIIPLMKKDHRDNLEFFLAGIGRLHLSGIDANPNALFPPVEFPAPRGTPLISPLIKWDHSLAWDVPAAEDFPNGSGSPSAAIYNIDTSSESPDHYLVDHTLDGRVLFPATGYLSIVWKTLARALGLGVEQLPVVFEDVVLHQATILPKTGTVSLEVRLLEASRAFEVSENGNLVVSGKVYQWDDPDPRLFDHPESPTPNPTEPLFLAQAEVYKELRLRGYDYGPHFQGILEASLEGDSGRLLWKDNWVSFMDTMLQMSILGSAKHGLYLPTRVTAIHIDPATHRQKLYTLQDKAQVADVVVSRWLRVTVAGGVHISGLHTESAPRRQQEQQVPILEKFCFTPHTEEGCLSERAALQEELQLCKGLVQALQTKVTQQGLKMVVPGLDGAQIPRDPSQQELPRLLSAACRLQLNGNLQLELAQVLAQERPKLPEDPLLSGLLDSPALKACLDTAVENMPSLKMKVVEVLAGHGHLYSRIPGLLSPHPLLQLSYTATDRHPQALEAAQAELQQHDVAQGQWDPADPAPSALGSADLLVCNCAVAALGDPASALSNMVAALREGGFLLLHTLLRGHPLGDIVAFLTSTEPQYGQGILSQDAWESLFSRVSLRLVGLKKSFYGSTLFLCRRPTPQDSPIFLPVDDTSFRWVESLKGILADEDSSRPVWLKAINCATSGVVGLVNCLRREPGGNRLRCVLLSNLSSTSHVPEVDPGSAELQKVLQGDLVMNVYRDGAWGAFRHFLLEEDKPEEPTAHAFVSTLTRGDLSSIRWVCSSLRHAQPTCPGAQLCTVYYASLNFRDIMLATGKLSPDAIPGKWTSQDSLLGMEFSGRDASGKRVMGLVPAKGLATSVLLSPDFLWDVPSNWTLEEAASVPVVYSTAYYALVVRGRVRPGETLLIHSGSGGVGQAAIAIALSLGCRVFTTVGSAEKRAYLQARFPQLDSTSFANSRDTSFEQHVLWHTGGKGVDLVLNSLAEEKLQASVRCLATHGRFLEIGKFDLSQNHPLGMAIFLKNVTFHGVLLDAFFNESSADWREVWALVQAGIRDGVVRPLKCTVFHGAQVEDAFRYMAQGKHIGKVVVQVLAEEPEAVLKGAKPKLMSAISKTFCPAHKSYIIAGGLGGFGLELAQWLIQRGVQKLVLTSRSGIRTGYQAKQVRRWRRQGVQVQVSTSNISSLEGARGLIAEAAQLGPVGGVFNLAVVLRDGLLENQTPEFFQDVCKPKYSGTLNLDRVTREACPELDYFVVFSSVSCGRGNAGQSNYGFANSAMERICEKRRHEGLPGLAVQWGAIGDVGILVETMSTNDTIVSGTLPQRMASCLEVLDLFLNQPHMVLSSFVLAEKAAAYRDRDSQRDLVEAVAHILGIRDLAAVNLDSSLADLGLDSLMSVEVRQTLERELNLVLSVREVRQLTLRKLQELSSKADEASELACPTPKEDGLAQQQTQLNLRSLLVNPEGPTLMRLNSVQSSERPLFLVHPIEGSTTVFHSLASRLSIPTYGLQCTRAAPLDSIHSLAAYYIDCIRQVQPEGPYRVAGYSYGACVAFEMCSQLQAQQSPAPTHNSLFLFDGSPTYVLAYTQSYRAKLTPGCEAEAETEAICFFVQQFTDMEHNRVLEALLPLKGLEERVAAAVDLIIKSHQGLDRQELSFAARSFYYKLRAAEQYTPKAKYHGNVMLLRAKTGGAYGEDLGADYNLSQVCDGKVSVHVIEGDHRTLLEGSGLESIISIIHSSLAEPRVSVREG
T1 sequence (P49327 whole entry, the tested form may be a part): as the sequence (P49327 whole entry) above

SMILES | IC50 [1] [nM] | IC50 [2] [nM] | IC50 [3] [nM] | IC50 [4] [nM] | inhibition at 10 µM [4] [%]
Cc1ccc(C(=O)N2CCC(c3ccc(-c4cnn(C)c4)cc3)CC2)cc1NC(=O)c1ccc(Cl)nc1 [Compound 102, 6-Chloro-N-(2-methyl-5-(4-(4-(1-methyl-1H-pyrazol-4-yl)phenyl)piperidine-1-carbonyl)phenyl)nicotinamide] | 36.3 | > 10000 | 38 | 18.6 | 105
COc1cc(C(=O)Nc2cc(C(=O)N3CCC(c4ccc(-c5cnn(C)c5)cc4)CC3)ccc2C)cc(Cl)n1 [Compound 103, 2-Chloro-6-methoxy-N-(2-methyl-5-(4-(4-(1-methyl-1H-pyrazol-4-yl)phenyl)piperidine-1-carbonyl)phenyl)isonicotinamide] | 141 | 4570 | 148 | 75.9 | 95
Cc1ccc(C(=O)N2CCC(c3ccc(-c4cnn(C)c4)cc3)CC2)cc1NC(=O)C1CCOCC1 [Compound 104, N-(2-methyl-5-(4-(4-(1-methyl-1H-pyrazol-4-yl)phenyl)piperidine-1-carbonyl)phenyl)tetrahydro-2H-pyran-4-carboxamide] | 70.8 | > 10000 | 87.1 | 42.7 | 104
COc1ccccc1C(=O)Nc1cc(C(=O)N2CCC(c3ccc(-c4cnn(C)c4)cc3)CC2)ccc1C [Compound 105, 2-methoxy-N-(2-methyl-5-(4-(4-(1-methyl-1H-pyrazol-4-yl)phenyl)piperidine-1-carbonyl)phenyl)benzamide] | 955 | 3020 | 617 | 309 | 86
CC(C)Nc1ccc(C(=O)Nc2cc(C(=O)N3CC(c4ccc(-c5ccnn5C)cc4)C3)ccc2Cl)cn1 [Compound 108, N-(2-chloro-5-(3-(4-(1-methyl-1H-pyrazol-5-yl)phenyl)azetidine-1-carbonyl)phenyl)-6-(isopropylamino)nicotinamide] | 93.3 | ~407 | 60.3 | 36.3 | 103
Cc1ccc(C(=O)N2CC(c3ccc(-c4cnn(C)c4)cc3)C2)cc1NC(=O)c1ccc(NC2CCC2)nc1 [Compound 109, 6-(cyclobutylamino)-N-(2-methyl-5-(3-(4-(1-methyl-1H-pyrazol-4-yl)phenyl)azetidine-1-carbonyl)phenyl)nicotinamide] | ~23.4 | > 15100 | 31.6 | 14.5 | 119
COc1ccc(C(=O)Nc2cc(C(=O)N3CCC(c4ccc(-c5cnn(C)c5)cc4)CC3)ccc2C)cn1 [Compound 113, 6-methoxy-N-(2-methyl-5-(4-(4-(1-methyl-1H-pyrazol-4-yl)phenyl)piperidine-1-carbonyl)phenyl)nicotinamide] | 67.6 | > 10000 | 47.9 | 28.8 | 104
Cc1ccc(C(=O)N2CCC(c3ccc(-c4cnn(C)c4)cc3)CC2)cc1NC(=O)c1c(Cl)cccc1Cl [Compound 121, 2,6-dichloro-N-(2-methyl-5-(4-(4-(1-methyl-1H-pyrazol-4-yl)phenyl)piperidine-1-carbonyl)phenyl)benzamide] | 1000 | 8510 | 794 | 380 | 87
Cc1ccc(C(=O)N2CCC(c3ccc(-c4cnn(C)c4)cc3)CC2)cc1NC(=O)c1ccc(Cl)cc1Cl [Compound 122, 2,4-dichloro-N-(2-methyl-5-(4-(4-(1-methyl-1H-pyrazol-4-yl)phenyl)piperidine-1-carbonyl)phenyl)benzamide] | 117 | > 10000 | 75.9 | 18.6 | 101
Cc1ccc(C(=O)N2CCC(c3ccc(-c4cnn(C)c4)cc3)CC2)cc1NC(=O)c1ccc(Cl)c(Cl)c1 [Compound 123, 3,4-dichloro-N-(2-methyl-5-(4-(4-(1-methyl-1H-pyrazol-4-yl)phenyl)piperidine-1-carbonyl)phenyl)benzamide] | 162 | 6760 | 77.6 | 53.7 | 97
Cc1ccc(C(=O)N2CCC(c3ccc(-c4cnn(C)c4)cc3)CC2)cc1NC(=O)C1CCN(Cc2ccccc2)CC1 [Compound 124, 1-benzyl-N-(2-methyl-5-(4-(4-(1-methyl-1H-pyrazol-4-yl)phenyl)piperidine-1-carbonyl)phenyl)piperidine-4-carboxamide] | 33.9 | 5370 | 81.3 | 25.7 | 105

More lines, in order of falling IC50 [4], values ahead:

IC50 [1] [nM] | IC50 [2] [nM] | IC50 [3] [nM] | IC50 [4] [nM] | inhibition at 10 µM [4] [%] | SMILES
537 | > 10000 | 631 | 316 | 92 | Cc1ccc(C(=O)N2CCC(c3ccc(-c4cnn(C)c4)cc3)CC2)cc1NC(=O)c1cnccc1Cl [Compound 114, 4-chloro-N-(2-methyl-5-(4-(4-(1-methyl-1H-pyrazol-4-yl)phenyl)piperidine-1-carbonyl)phenyl)nicotinamide]
562 | 4470 | 389 | 182 | 98 | Cc1ccc(F)c(C(=O)Nc2cc(C(=O)N3CCC(c4ccc(-c5cnn(C)c5)cc4)CC3)ccc2C)c1 [Compound 127, 2-fluoro-5-methyl-N-(2-methyl-5-(4-(4-(1-methyl-1H-pyrazol-4-yl)phenyl)piperidine-1-carbonyl)phenyl)benzamide]
191 | 6460 | 141 | 64.6 | 98 | Cc1ccc(C(=O)N2CCC(c3ccc(-c4cnn(C)c4)cc3)CC2)cc1NC(=O)c1ccc(N(C)C)cn1 [Compound 119, 5-(dimethylamino)-N-(2-methyl-5-(4-(4-(1-methyl-1H-pyrazol-4-yl)phenyl)piperidine-1-carbonyl)phenyl)picolinamide]
145 | ~10000 | 97.7 | 44.7 | 95 | Cc1ccc(C(=O)N2CCC(c3ccc(-c4cnn(C)c4)cc3)CC2)cc1NC(=O)c1ccc(F)c(F)c1F [Compound 120, 2,3,4-trifluoro-N-(2-methyl-5-(4-(4-(1-methyl-1H-pyrazol-4-yl)phenyl)piperidine-1-carbonyl)phenyl)benzamide]
132 | 4790 | 79.4 | 44.7 | 104 | Cc1ccc(C(=O)N2CC(c3ccc(-c4cnn(C)c4)cc3)C2)cc1NC(=O)C1CCCCC1 [Compound 125, N-(2-methyl-5-(3-(4-(1-methyl-1H-pyrazol-4-yl)phenyl)azetidine-1-carbonyl)phenyl)cyclohexanecarboxamide]
126 | > 10000 | 93.3 | 43.7 | 101 | Cc1ccc(C(=O)N2CCC(c3ccc(-c4cnn(C)c4)cc3)CC2)cc1NC(=O)c1ccc(F)cc1 [Compound 116, 4-fluoro-N-(2-methyl-5-(4-(4-(1-methyl-1H-pyrazol-4-yl)phenyl)piperidine-1-carbonyl)phenyl)benzamide]
138 | > 10000 | 83.2 | 33.1 | 99 | Cc1ccc(C(=O)N2CCC(c3ccc(-c4cnn(C)c4)cc3)CC2)cc1NC(=O)c1ccccc1F [Compound 117, 2-fluoro-N-(2-methyl-5-(4-(4-(1-methyl-1H-pyrazol-4-yl)phenyl)piperidine-1-carbonyl)phenyl)benzamide]
26.3 | > 10000 | 32.4 | 30.2 | 110 | CSc1ccc(C(=O)Nc2cc(C(=O)N3CCC(c4ccc(-c5cnn(C)c5)cc4)CC3)ccc2C)cc1 [Compound 126, N-(2-methyl-5-(4-(4-(1-methyl-1H-pyrazol-4-yl)phenyl)piperidine-1-carbonyl)phenyl)-4-(methylthio)benzamide]
79.4 | > 15100 | 24.5 | 10.7 | 113 | Cc1ccc(C(=O)N2CC(c3ccc(-c4cnn(C)c4)cc3)C2)cc1NC(=O)c1ccc(N2CCCC2)nc1 [Compound 106, N-(2-methyl-5-(3-(4-(1-methyl-1H-pyrazol-4-yl)phenyl)azetidine-1-carbonyl)phenyl)-6-(pyrrolidin-1-yl)nicotinamide]

Source: patent publication US9562035B2, “Benzamide derivative useful as FASN inhibitors for the treatment of cancer” (Janssen Pharmaceutica NV, priority 2013, dated 2017)
